The source of these data is publication PMC9555310, “Novel inhibitors and activity-based probes targeting serine proteases” (Frontiers in Chemistry, 2022).

Test [1] has as its target T1, trypsin (Sus scrofa, UniProt P00761).
T1 construct: purchased Sigma-Aldrich; host or cells: porcine pancreas
Description: Off-target study, residual activity after 2 min pre-incubation: trypsin. It is filed as biochemical, porcine. The following applies: 2 min incubation, PBS pH 7.4, 37°C, residual activity vs DMF control. Here is the method: FIGURE 5 Results of “off-target“ studies. NAP849 (A), NAP800 (B) and NAP830 (C) were tested against trypsin, chymotrypsin, and NE. Samples (approx. 0.01 μg) of each protease were incubated with the indicated concentrations of test compound for 2 min, in PBS, pH 7.4, at 37°C. (D) NAP858, NAP962 and NAP849 were tested against cathepsin B at the indicated concentrations in 0.1 M MES, pH 6.1, containing 1 mM EDTA, for 2 min, at 37°C. Aliquots (approx. 10 μL) of each incubation sample were then added to a fresh sample (990 μL) of PBS for the serine proteases and MES for cathepsin B, containing the appropriate substrate for each protease, to measure their residual activity. Controls incubations were performed in the absence of test compound, but in the presence of an appropriate volume of DMF vehicle used to prepare stock solutions of each inhibitor under study. […]
For assays requiring a pre-incubation step enzyme and inhibitor in assay buffer were incubated together, at 37 °C, for 2 min, with gentle agitation. […] The fluorescence production was then measured as described for the previous procedure.

Test [2] has as its target T2, plasmin (Homo sapiens, UniProt P00747).
T2 construct: purchased Sigma-Aldrich (supplement); R&D Systems; host or cells: human plasma
Nature of the test: Irreversible inhibition kinetics of plasmin (fluorogenic substrate progress curves). It is filed as biochemical. Conditions: PBS pH 7.4, 37°C, mean ± SD (n=2); for Ki: Boc-Val-Leu-Lys-NHMec 50 μM; for k 3: first-order rate constant; for k 3 / K i: second-order rate constant of inactivation. Here is the method:
A range of inhibitor concentrations were prepared from a 10 mM stock solution of the test compounds (NAP533, NAP559, NAP800, NAP830, NAP849, and NAP962) in N, N-dimethylformamide (DMF). Recombinant protease activities were assayed using the cognate fluorogenic substrates as follows: trypsin (Z-Gly-Gly-Arg-NHMec), thrombin (Boc-Val-Pro-Arg-NHMec), plasmin (Boc-Val-Leu-Lys-NHMec), human neutrophil elastase (MeO-Succinyl-Ala-Ala-Pro-Val-NHMec), and chymotrypsin (Succinyl-Ala-Ala-Pro-Phe-NHMec). Each substrate was used at a final concentration of 50 μM, in the appropriate buffer for each protease. All inhibition assays were performed in microtiter plates maintained at 37°C in a final volume of 100 μL. The reaction was initiated by the addition of each protease (approx. 0.01 μg/well) and the rate of substrate hydrolysis was recorded continuously at 37°C, over a 60 min period, by measuring the rate of increase in fluorescence (at λex 360 nm, λem 480 nm) using a FLUOstar Optima microplate reader (BMG Labtech).
The resultant inhibition progress curves obtained for each inhibitor were analyzed by the kinetic models developed by [Tian and Tsou (1982)] and [Walker and Elmore (1984)], for irreversible inhibitors, with curve fitting being achieved using GraFit (Erithacus Software), as described previously ([Ferguson et al., 2016]).
FIGURE 4 Progress curves for (A), chymotrypsin-catalysed hydrolysis of Succinyl-Ala-Ala-Pro-Phe-NHMec, in the presence of varying concentrations of NAP849. (B), NE-catalysed hydrolysis of MeO-succinyl-Ala-Ala-Pro-Val-NHMec, in the presence of varying concentrations of NAP800. (C) Trypsin-catalysed of Z-Gly-Gly-Arg-NHMec, in the presence of NAP830. (D) Plasmin-catalysed hydrolysis of Boc-Val-Leu-Lys-NHMec, in the presence of varying concentrations of NAP962. Assays were carried out in PBS, pH 7.4, at 37°C, in the presence of a range of inhibitor concentrations (0.25–50 μM) and a fixed concentration (50 μM) of the appropriate substrate for each protease.
The “product progress” curves for substrate hydrolysis in the presence of an inhibitor (Figure 4) are indicative of the action of irreversible inhibitors operating through the kinetic scheme illustrated in Figure 6. In this scheme, the formation of the reversible enzyme–inhibitor complex (EI) is zcharacterized by the inhibitor constant K i. This is converted into the covalent/irreversible complex (E-I) characterized by a first-order rate constant k 3. The overall second-order rate constant for the inactivation of E by I is given by the ratio k 3/K i ([Walker and Elmore, 1984]; [Tsou, 1988]).
Fluorogenic enzyme assays were carried out on a FLUOstar OPTIMA spectro-fluorimeter (BMG Labtech) with analysis performed on MARS Data Analysis Software (BMG Labtech). Black 96-well microtitre plates were supplied by Thermo Scientific. Trypsin from porcine pancreas, plasmin from human plasma and chymotrypsin from bovine pancreas were obtained from Sigma-Aldrich. Thrombin and Cathepsin B were supplied by R and D Systems. Human Neutrophil Elastase was supplied by Calbiochem. Fluorogenic substrates Z-Gly-Gly-Arg-NHMec, Succinyl-Ala-Ala-Pro-Phe-NHMec and MeO-Succinyl-Ala-Ala-Pro-Val-NHMec were supplied by Sigma-Aldrich. Boc-Val-Pro-Arg-NHMec was obtained from R and D Systems and Boc-Val-Leu-Lys-NHMec was supplied by PeptaNova. Phosphate Buffered Saline tablets were acquired from Sigma- Aldrich.
Protease inactivation by each of the compounds under study was evaluated using a fluorogenic enzyme assays. Protease-substrate combinations used as detailed in Section 2. Inhibitors were made up as 10 mM stock solutions in either DMF or DMSO, then diluted with PBS (pH 7.4) to give appropriate working concentrations. A final volume of 100 μL was used per well. Substrate (50 μM final concentration) was added to a black 96-well microtitre plate (Thermo Scientific), in duplicate, followed by addition of inhibitor, in such a manner to give the required final concentration. […]

The target in test [3] is T3, cathepsin B (CTSB) (Homo sapiens, UniProt P07858).
T3 construct: purchased R and D Systems
Nature of the test: Off-target study, residual activity after 2 min pre-incubation: cathepsin B. It is filed as biochemical. Conditions: 25 and 50 μM, 0.1 M MES pH 6.1, 1 mM EDTA, 37°C. Here is the method: FIGURE 5 Results of “off-target“ studies. NAP849 (A), NAP800 (B) and NAP830 (C) were tested against trypsin, chymotrypsin, and NE. Samples (approx. 0.01 μg) of each protease were incubated with the indicated concentrations of test compound for 2 min, in PBS, pH 7.4, at 37°C. (D) NAP858, NAP962 and NAP849 were tested against cathepsin B at the indicated concentrations in 0.1 M MES, pH 6.1, containing 1 mM EDTA, for 2 min, at 37°C. Aliquots (approx. 10 μL) of each incubation sample were then added to a fresh sample (990 μL) of PBS for the serine proteases and MES for cathepsin B, containing the appropriate substrate for each protease, to measure their residual activity. Controls incubations were performed in the absence of test compound, but in the presence of an appropriate volume of DMF vehicle used to prepare stock solutions of each inhibitor under study.
Two elements were investigated regarding possible “off-target” effects–determining the extent of cross-reactivity of each of the new putative ABPs between the various serine protease family members and assessing their collateral inhibitory action against another mechanistic class–the cysteine proteases, using cathepsin B (CTSB) as an exemplar.
For assays requiring a pre-incubation step enzyme and inhibitor in assay buffer were incubated together, at 37 °C, for 2 min, with gentle agitation. The reaction mixture was then aliquoted (50 μL) in duplicate on a black 96-well microtitre plate followed by addition of substrate to make a final concentration of 50 μM in a total volume of 100 μL. The fluorescence production was then measured as described for the previous procedure.
Assays with Cathepsin B required a pre-activation step of the protease prior to use in the fluorogenic enzyme assays. Cathepsin B was diluted to 10 μg/ml in activation buffer (0.1 M MES, pH 6.1, containing 1 mM EDTA and 2 mM DTT) and left to stand at room temperature for 15 minutes. Activated Cathepsin B was then diluted (1:50 to give 10 ng/50 μl) with assay buffer (activation buffer minus the DTT) prior to use as described previously.

T2 sequence (P00747 581-810 limits assumed): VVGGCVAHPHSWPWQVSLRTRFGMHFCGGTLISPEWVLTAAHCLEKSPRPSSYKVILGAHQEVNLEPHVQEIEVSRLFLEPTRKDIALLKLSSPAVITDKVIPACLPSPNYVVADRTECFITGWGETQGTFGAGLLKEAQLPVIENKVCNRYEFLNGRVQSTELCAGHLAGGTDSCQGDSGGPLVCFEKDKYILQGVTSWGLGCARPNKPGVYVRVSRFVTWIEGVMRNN
T2 sequence (P00747 97-580 partner limits assumed): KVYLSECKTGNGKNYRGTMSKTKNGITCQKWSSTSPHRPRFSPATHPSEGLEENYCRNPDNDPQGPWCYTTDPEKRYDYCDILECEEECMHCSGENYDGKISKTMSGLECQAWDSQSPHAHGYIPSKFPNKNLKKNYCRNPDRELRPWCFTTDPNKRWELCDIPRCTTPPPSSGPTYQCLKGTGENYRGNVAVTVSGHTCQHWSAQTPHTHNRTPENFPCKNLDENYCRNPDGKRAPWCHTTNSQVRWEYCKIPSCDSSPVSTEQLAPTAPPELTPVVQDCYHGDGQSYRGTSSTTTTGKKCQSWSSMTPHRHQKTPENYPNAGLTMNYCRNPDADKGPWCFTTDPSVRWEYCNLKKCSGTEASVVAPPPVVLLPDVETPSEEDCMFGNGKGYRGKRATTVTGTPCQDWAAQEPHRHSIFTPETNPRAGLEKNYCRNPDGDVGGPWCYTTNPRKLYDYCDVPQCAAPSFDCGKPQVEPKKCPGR
T1 sequence (P00761 9-231): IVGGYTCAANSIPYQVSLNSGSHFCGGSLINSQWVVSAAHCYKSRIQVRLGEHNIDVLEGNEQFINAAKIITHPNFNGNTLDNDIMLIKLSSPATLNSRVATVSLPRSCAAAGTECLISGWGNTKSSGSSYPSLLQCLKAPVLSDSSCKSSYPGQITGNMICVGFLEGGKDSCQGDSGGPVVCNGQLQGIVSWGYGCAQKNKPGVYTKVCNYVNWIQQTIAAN

For the compound `CC(C)N(CC(=O)NCC(=O)NCC(=O)NCCCOCCOCCOCCCNC(=O)CCCCC1SCC2NC(=O)NC21)C(=O)ON1C(=O)CCC1=O` (stereo not drawn) [NAP800, Succinimidoyl-CO-NVal-Gly-Gly-PEG-Biotin], the “off-target inhibition of trypsin” value in test [1] is on record as “no “off-target” or collateral inhibition”.

In the case of `NCCCCN(CC(=O)NCC(=O)NCC(=O)NCCCOCCOCCOCCCNC(=O)CCCCC1SCC2NC(=O)NC21)C(=O)ON1C(=O)CCC1=O` (stereo not drawn) [NAP830, Succinimidoyl-CO-NLys-Gly-Gly-PEG-Biotin], in test [2], the Ki came out at 7.2 µM, the “k 3” value was 0.4 (± 0.05) min^−1 and the “k 3 / K i” value was 6.2 (± 0.9) × 10^4 M^−1 min^−1. For the same compound, in test [3], the “inhibitory activity against CTSB” value was “none of the three carbamates tested exhibited any inhibitory activity against CTSB”.

In the case of `O=C(CCCCC1SCC2NC(=O)NC21)NCCCOCCOCCOCCCNC(=O)CNC(=O)CNC(=O)CN(Cc1ccccc1)C(=O)ON1C(=O)CCC1=O` (stereo not drawn) [NAP849, Succinimidoyl-CO-NPhe-Gly-Gly-PEG-Biotin], in test [1], the “off-target inhibition of trypsin” value was “complete absence of inhibition”.

Consider `CC(C)N(CC(=O)NCCCOCCOCCOCCCNC(=O)CCCCC1SCC2NC(=O)NC21)C(=O)CN(Cc1ccccc1)C(=O)CN(CCCCN)C(=O)ON1C(=O)CCC1=O` (stereo not shown) [NAP962, Succinimidoyl-CO-NLys-NPhe-NVal-PEG-Biotin], for which, in test [2], the Ki worked out at 4.2 µM, the “k 3” value is recorded as 0.6 (± 0.1) min^−1 and the “k 3 / K i” value is 1.4 (± 0.3) × 10^5 M^−1 min^−1. For the same compound, in test [3], the “inhibitory activity against CTSB” value is listed as “none of the three carbamates tested exhibited any inhibitory activity against CTSB”.
